# Test results taken from US7576215B2, “Quinolines and pharmaceutical compositions thereof” (Wyeth, priority 2003, dated 2009).
row,SMILES,melting point [°C]
1,"Oc1cc(-c2c(-c3ccccc3)cnc3c(C(F)(F)F)cccc23)ccc1Cl [Example 392, 2-CHLORO-5-[3-PHENYL-8-(TRIFLUOROMETHYL)QUINOLIN-4-YL]PHENOL]",252
2,"COc1cc(-c2c(-c3ccccc3)cnc3c(C(F)(F)F)cccc23)ccc1Cl [Example 393, 4-(4-CHLORO-3-METHOXYPHENYL)-3-PHENYL-8-(TRIFLUOROMETHYL)QUINOLINE]",172 to 174
3,"Nc1cccc(-c2c(-c3ccccc3)cnc3c(C(F)(F)F)cccc23)c1 [Example 395, {3-[3-PHENYL-8-(TRIFLUOROMETHYL)QUINOLIN-4-YL]PHENYL}AMINE]",163 to 165
4,"O=C(O)Cc1ccc(COc2cccc(-c3c(-c4ccccc4)cnc4c(C(F)(F)F)cccc34)c2)cc1 [Example 398, [4-({3-[3-PHENYL-8-(TRIFLUOROMETHYL)QUINOLIN-4-YL]PHENOXY}METHYL)PHENYL]ACETIC ACID]",122
5,"FC(F)(F)c1cccc2c(-c3ccccc3)c(Oc3ccccc3)cnc12 [Example 407, 3-PHENOXY-4-PHENYL-8-(TRIFLUOROMETHYL)QUINOLINE]",122
6,"FC(F)(F)c1cccc2c(-c3ccccc3)c(Sc3ccccc3)cnc12 [Example 411, 4-PHENYL-3-(PHENYLTHIO)-8-(TRIFLUOROMETHYL)QUINOLINE]",139 to 141
7,"Oc1ccc(F)c(-c2c(-c3ccccc3)cnc3c(C(F)(F)F)cccc23)c1 [Example 412, 4-FLUORO-3-[3-PHENYL-8-(TRIFLUOROMETHYL)QUINOLIN-4-YL]PHENOL]",85
8,"Oc1cccc(-c2c(-c3ccccc3F)cnc3c(C(F)(F)F)cccc23)c1 [Example 458, 3-[3-(2-FLUOROPHENYL)-8-(TRIFLUOROMETHYL)QUINOLIN-4-YL]PHENOL]",186 to 187
9,"Cc1nc2c(C(F)(F)F)cccc2c(-c2ccccc2)c1C(=O)c1ccccc1 [Example 477, [2-METHYL-4-PHENYL-8-(TRIFLUOROMETHYL)QUINOLIN-3-YL](PHENYL)METHANONE]",175 to 177
10,"COC(=O)c1ccc(COc2cccc(-c3c(C(=O)c4ccccc4)cnc4c(C(F)(F)F)cccc34)c2)c(OC)c1 [Example 507, METHYL-4-({3-[3-BENZOYL-8-(TRIFLUOROMETHYL)QUINOLIN-4-YL]PHENOXY}METHYL)-3-METHOXYBENZOATE]",60 to 63
11,"O=C(O)c1ccc(COc2cccc(-c3c(-c4ccccc4)cnc4c(C(F)(F)F)cccc34)c2)cc1 [Example 512, 4-({3-[3-PHENYL-8-(TRIFLUOROMETHYL)QUINOLIN-4-YL]PHENOXY}METHYL)BENZOIC ACID]",108 to 112
12,"COc1cc(C(=O)O)ccc1COc1cccc(-c2c(C(=O)c3ccccc3)cnc3c(C(F)(F)F)cccc23)c1 [Example 515, 4-({3-[3-BENZOYL-8-(TRIFLUOROMETHYL)QUINOLIN-4-YL]PHENOXY}METHYL)-3METHOXY-BENZOIC ACID]",100 to 110
13,"Cc1ccccc1-c1cnc2c(C(F)(F)F)cccc2c1-c1cccc(NC(=O)Nc2ccccc2F)c1 [Example 573, N-(2-FLUOROPHENYL)-N′-{3-[3-(2-METHYLPHENYL)-8-(TRIFLUOROMETHYL)QUINOLIN-4-YL]PHENYL}UREA]",218 to 220
